# BindingDB's records for doi:10.3109/14756360903049059 (China Pharmaceutical University, 2010)
# Molecular target: T1, 3-oxoacyl-[acyl-carrier-protein] synthase 3 (Mycobacterium tuberculosis (strain ATCC 25618 / H37Rv), UniProt P9WNG3)
# T1 sequence (P9WNG3 whole entry): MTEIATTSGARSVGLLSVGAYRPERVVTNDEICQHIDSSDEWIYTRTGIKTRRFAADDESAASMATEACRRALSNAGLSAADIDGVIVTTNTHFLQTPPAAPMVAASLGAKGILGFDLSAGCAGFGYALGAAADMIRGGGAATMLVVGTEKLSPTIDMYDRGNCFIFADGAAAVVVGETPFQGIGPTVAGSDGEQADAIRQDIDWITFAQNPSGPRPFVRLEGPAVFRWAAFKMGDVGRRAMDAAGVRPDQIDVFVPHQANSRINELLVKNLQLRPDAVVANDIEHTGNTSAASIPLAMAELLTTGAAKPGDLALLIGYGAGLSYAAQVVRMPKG
# Assay: 3D-QSAR
# Protocol: The biological activities of the compounds were evaluated in the same laboratory. Biological activities measured as IC50 were converted to pIC50 (−log(IC50)) for use in the 3D-QSAR study.
row,Compound,IC50 [µM]
1,"CC(=O)Nc1cccc(-c2ccc(CC3(C)SC(=O)C(C)=C3O)cc2)c1 (centres undefined) [mtFabH inhibitor, 25]",119
2,"C#CC1(C)SC(=O)C(C)=C1O (centres undefined) [mtFabH inhibitor, 2]",100
3,"CC1=C(O)C(C)(C#CCc2ccc([N+](=O)[O-])cc2)SC1=O (centres undefined) [mtFabH inhibitor, 6]",34
4,"CC(=O)c1ccc(C#CC2(C)SC(=O)C(C)=C2O)cc1O (centres undefined) [mtFabH inhibitor, 4]",7
5,"CC1=C(O)C(C)(Cc2ccccc2)SC1=O (centres undefined) [mtFabH inhibitor, 9]",250
6,"CC1=C(O)C(C)(C#CCc2ccc(C#N)cc2)SC1=O (centres undefined) [mtFabH inhibitor, 7]",7
7,"CC1=C(O)C(C)(Cc2cccc(C(=O)c3ccccc3)c2)SC1=O (centres undefined) [mtFabH inhibitor, 40]",283
8,"COc1ccc(C2(C)SC(=O)C(C)=C2O)cc1 (centres undefined) [mtFabH inhibitor, 13]",500
9,"CC(=O)c1ccc(C#CC2(C)SC(=O)C(C)=C2O)cc1 (centres undefined) [mtFabH inhibitor, 3]",4
10,"COC(=O)c1ccc(CC#CC2(C)SC(=O)C(C)=C2O)cc1 (centres undefined) [mtFabH inhibitor, 5]",74
11,"CC1=C(O)C(C)(Cc2ccc(C(F)(F)F)cc2)SC1=O (centres undefined) [mtFabH inhibitor, 27]",100
12,"CCCCCCCCCCCCCC1(C)SC(=O)C(C)=C1O (centres undefined) [mtFabH inhibitor, 26]",80
13,"COc1ccc(CC2(C)SC(=O)C(C)=C2O)cc1 (centres undefined) [mtFabH inhibitor, 12]",155
14,"CC1=C(O)C(C)(C#Cc2ccccc2C#N)SC1=O (centres undefined) [mtFabH inhibitor, 8]",48
